These results are taken from US7771935B2, “Evolving new molecular function” (President and Fellows of Harvard College, priority 2002, dated 2010).

For series [1], the target named is T1, Taq DNA polymerase (Thermus aquaticus, UniProt P19821). As to conditions: cited from earlier work.
Series [2] has as its target T1, Taq DNA polymerase. The series is described as follows: PCR incorporation of modified nucleotide triphosphates by Taq DNA polymerase. The series is classed as biochemical. Conditions: 30 PCR cycles; pUC19 template; three natural dNTPs. How it is done: The ability of the modified nucleotide triphosphates containing metal-binding functionality shown in FIG. 75 to be accepted by DNA polymerase enzymes was studied. Synthetic nucleotide triphosphates were purified by ion exchange and reverse-phase HPLC and were added to PCR reactions containing Taq DNA polymerase, three natural deoxynucleotide triphosphates, pUC19 template DNA, and two DNA primers. The primers were chosen to generate PCR products ranging from 50 to 200 base pairs in length. Control PCR reactions contained the four natural deoxynucleotide triphosphates and no non-natural nucleotides.

Series [3] addresses glutathione S-transferase (GST). As to conditions: read-out: Kd of binding to glutathione S-transferase (GST); cited from earlier work.
In the next series the target is T2, papain (Carica papaya, UniProt P00784).
T2 construct: purchased Sigma
T2 sequence (P00784 134-345): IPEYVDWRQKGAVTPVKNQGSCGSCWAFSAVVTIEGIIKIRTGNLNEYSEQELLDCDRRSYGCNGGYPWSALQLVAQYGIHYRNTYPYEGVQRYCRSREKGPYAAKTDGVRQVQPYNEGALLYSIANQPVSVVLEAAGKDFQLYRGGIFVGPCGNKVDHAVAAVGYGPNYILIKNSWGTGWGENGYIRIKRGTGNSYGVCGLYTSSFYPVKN
As to conditions: known binding of the free ligand; cited from earlier work.

Another series has as its target T3, chymotrypsin (Bos taurus, UniProt P00766, DEL14-15/DEL147-148).
T3 construct: purchased Sigma
Conditions: known binding of the free ligand; cited from earlier work.

The next series deals with Vent DNA polymerase (Thermococcus litoralis, UniProt P30317, DEL1082-1471/DEL495-1032). As to conditions: PCR conditions; cited from earlier work.
Vent DNA polymerase, sequence (P30317 other isoform, or with tags, fused parts or gaps DEL495-1032/DEL1082-1471): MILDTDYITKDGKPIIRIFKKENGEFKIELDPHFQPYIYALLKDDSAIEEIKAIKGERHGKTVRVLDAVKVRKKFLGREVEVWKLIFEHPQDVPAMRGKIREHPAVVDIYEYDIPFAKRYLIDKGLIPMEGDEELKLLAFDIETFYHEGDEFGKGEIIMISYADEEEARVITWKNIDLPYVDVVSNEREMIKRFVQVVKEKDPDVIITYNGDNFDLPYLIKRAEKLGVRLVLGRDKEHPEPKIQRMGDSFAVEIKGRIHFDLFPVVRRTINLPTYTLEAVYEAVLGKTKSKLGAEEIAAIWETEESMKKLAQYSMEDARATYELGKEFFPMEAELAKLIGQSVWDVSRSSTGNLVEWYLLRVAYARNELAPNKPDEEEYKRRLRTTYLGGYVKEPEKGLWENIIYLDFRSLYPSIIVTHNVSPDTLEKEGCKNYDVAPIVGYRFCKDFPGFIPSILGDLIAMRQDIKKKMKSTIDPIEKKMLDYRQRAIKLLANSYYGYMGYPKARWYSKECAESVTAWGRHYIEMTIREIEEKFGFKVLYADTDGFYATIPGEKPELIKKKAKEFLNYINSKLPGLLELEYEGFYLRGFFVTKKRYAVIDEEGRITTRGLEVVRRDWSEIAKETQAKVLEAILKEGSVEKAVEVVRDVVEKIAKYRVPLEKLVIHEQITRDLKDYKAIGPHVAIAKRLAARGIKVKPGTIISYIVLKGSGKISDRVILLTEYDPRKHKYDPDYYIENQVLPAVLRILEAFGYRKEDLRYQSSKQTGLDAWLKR
Series [4] can be described thus: Bromide structural and configurational stability under the reaction conditions (MALDI-TOF, chiral HPLC). As to conditions: 16 hours under the reaction conditions; both enantiomers. Format: physicochemical.

T1 sequence (P19821 whole entry): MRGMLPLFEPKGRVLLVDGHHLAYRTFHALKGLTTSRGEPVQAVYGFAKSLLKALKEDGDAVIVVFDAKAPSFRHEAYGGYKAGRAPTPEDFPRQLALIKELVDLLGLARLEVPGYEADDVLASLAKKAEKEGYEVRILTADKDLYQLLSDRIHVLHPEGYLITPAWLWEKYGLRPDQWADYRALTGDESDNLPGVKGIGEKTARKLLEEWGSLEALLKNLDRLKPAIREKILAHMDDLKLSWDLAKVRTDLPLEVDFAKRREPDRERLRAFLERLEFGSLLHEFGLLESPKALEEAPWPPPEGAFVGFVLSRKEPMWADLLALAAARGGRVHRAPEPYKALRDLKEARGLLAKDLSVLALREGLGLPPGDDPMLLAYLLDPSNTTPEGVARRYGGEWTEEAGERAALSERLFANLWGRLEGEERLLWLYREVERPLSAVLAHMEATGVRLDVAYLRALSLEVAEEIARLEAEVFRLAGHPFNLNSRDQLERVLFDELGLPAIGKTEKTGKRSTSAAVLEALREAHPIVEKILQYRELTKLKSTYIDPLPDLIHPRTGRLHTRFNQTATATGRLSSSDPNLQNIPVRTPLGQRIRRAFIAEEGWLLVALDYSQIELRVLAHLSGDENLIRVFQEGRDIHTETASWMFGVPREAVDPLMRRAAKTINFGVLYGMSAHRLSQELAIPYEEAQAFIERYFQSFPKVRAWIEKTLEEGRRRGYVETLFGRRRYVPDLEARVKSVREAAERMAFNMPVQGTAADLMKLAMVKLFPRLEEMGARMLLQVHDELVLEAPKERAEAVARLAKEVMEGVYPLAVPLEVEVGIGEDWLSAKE

For the compound `NCC=Cc1cn(C2CC(O)C(CO)O2)c2ncnc(N)c12` (stereo not drawn) [analog 12], the “acceptance by Taq DNA polymerase” value on Taq DNA polymerase [1] is “acceptance”.
As to `NCC#Cc1cn([C@H]2C[C@H](O)[C@@H](CO)O2)c2ncnc(N)c12` [uridine analog 13, 7-aminopropynyl-7-deazadeoxyadenosine], on Taq DNA polymerase [1], the “acceptance by Taq DNA polymerase” value is “acceptance”. For the same compound, the “incorporation by Taq DNA polymerase” value on Taq DNA polymerase [2] is on record as “efficiently incorporated”.
A word on the Kd: it is a measure of binding affinity in units of concentration. For the compound `NC(=O)CNC(=O)[C@H](CS)NC(=O)CC[C@H](N)C(=O)O` [glutathione amide], the Kd in series [3] was ~10 µM.
For `CC(C)C[C@H](NC(=O)[C@@H](NC(=O)N[C@@H](Cc1ccccc1)C(=O)O)[C@@H]1CCN=C(N)N1)C(=O)N[C@H](C=O)Cc1ccccc1` [chymostatin], the affinity for papain entry on papain is reported as “binds to both proteases”. For the same compound, the affinity for chymotrypsin entry on chymotrypsin is reported as “binds to both proteases”.
In the case of `NCCCc1cn(C2CC(O)C(CO)O2)c2ncnc(N)c12` (stereo not drawn) [analog 11], on Taq DNA polymerase [1], the “acceptance by Taq DNA polymerase” value is given as “acceptance”.
As for `O=C(O)CCCC[C@@H]1SC[C@@H]2NC(=O)N[C@@H]21` [biotin], the affinity for chymotrypsin entry on chymotrypsin is “no significant affinity”.
Take `CCCC#Cc1cn([C@H]2C[C@H](O)[C@@H](CO)O2)c(=O)[nH]c1=O` [analog 1, 5-(1-pentynyl)-deoxyuridine]: the “acceptance by Vent DNA polymerase” value on Vent DNA polymerase is reported as “acceptance”.
On to `CCc1nc2c(N)ncnc2n1C1CC(O)C(COP(=O)(O)OP(=O)(O)OP(=O)(O)O)O1` (stereo not drawn) [8-modified adenosine triphosphate 33], for which the “incorporation by Taq DNA polymerase” value on Taq DNA polymerase [2] was “not accepted”.
Turning to `Cc1nc2c(N)ncnc2n1C1CC(O)C(COP(=O)(O)OP(=O)(O)OP(=O)(O)O)O1` (stereo not drawn) [8-modified adenosine triphosphate 32], the “incorporation by Taq DNA polymerase” value on Taq DNA polymerase [2] is reported as “not accepted”.
On to `CNC(=O)C(C)Br` (racemic) [N-methyl 2-bromopropionamide], for which, in series [4], the “configurational stability by chiral HPLC” value is “No change in retention time”.
